The text below walks through data of patent publication US7923465B2, “Cannabinoid receptor ligands, pharmaceutical compositions containing them, and process for their preparation” (priority 2005, dated 2011).

The term IC50 denotes the concentration needed to halve the response being measured. As a reminder, the melting point is the temperature of the solid-liquid transition.

The target of series [1] is T1, hCB1 (Homo sapiens, UniProt P21554). Kind of series: Agonism of CB1 receptors expressed in CHO cells, forskolin cAMP assay (Protocol IX.2). The series is classed as cell-based. Also on record: expressed in transfected cells; host or cells: CHO (h-CB1/CHO, G418-selected). In a few lines: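 CHO cells stably expressing hCB1 stimulated with forskolin in Krebs buffer with 0.1% FAF BSA and 1 mM IBMX. Lysed cells' cAMP measured by chemiluminescence; EC50 from nonlinear regression of dose-response curves.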
T1 sequence (P21554 whole entry): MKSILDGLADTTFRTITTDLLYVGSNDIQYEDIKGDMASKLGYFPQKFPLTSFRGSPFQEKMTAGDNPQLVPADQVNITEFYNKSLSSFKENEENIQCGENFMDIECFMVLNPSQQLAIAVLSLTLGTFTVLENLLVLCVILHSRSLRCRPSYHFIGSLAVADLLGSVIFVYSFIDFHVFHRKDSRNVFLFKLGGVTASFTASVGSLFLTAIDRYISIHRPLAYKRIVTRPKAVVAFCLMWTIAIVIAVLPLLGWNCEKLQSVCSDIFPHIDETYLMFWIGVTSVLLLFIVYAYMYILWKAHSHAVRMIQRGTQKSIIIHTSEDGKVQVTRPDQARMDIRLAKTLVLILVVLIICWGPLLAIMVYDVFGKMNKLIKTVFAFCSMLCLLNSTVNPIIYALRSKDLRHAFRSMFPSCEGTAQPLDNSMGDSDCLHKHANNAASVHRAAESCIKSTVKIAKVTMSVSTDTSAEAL

For series [2], the system named is CB2 receptor. Kind of series: Rat CB2 receptor binding using spleen membrane, [3H]CP55,940 displacement (Protocol III). The method, then:
III. In Vitro Protocol for Rat CB2 Receptor Binding Using Spleen Membrane
In this assay, [^3H]CP55,940 was used to bind the CB2 receptor present in a rat spleen membrane preparation which can be displaced by unlabeled ligands having affinity to the CB2 receptor.
The assay was performed according to the modified method of Rinaldi-Carmona et al., 1998 (JPET 284: 644-650). The total reaction mixture ([…]) contained Tris-BSA buffer (50 mM Tris, pH 7.4 with 1.5% BSA) or unlabeled SR144528 (N-[(1S)-endo-1,3,3-trimethyl bicyclo[2.2.1]heptan-2-yl]-5-(4-chloro-3-methylphenyl)-1-(4-methyl-benzyl)-pyrazole-3-carboxamide]) ([…]) or test samples (300 nM), [^3H]CP55,940 (1 nM) and […] of rat […] membrane. The non-specific binding was defined by […] of SR144528. The assay mixture was incubated at 37° C. for 1 hour. The reaction was then stopped by rapid filtration under vacuum using a Whatman GF/B-96 micro filter plate. A scintillation cocktail was added and radioactive counts were measured using a Topcount beta scintillation counter.
The standard and test sample dilutions were made in an assay buffer containing either ethanol or DMSO at a final concentration of 1%.
The percent (%) displacement by a test ligand was calculated by comparing the specific bound values.

The target of series [3] is T1, hCB1. Kind of series: Antagonism of CB1 receptors expressed in CHO cells, cAMP assay against CP 55,940 (Protocol IX.1). The format is cell-based. Also on record: expressed in transfected cells; host or cells: CHO (h-CB1/CHO, G418-selected). The conditions noted are these: CHO, read-out: hCB1 Antagonism. On the technique in general: Cyclic AMP is a second messenger, typically raised through Gs and lowered through Gi signalling.

For series [4], the target named is T2, CB1 (Rattus norvegicus, UniProt P20272). Briefly: GTPγS binding assay, CB1 functional assay in rat cerebellar membrane (Protocol VIII). The format is biochemical. Also on record: 10 μg rat cerebellum membrane; from tissue; host or cells: rat cerebellum membrane, prepared in-house. The conditions noted are these: for activation at 0.3 µM: 1 h, GTPγS binding over basal, rat cerebellar membrane, tested at 300 nM, read-out: Per Se % Stimulation; for inhibition at 0.3 µM: GTPγS binding, tested at 300 nM in presence of 1 μM WIN 55,212-2, read-out: % Inhibition of WIN-55212-2 induced stimulation. In a few lines:
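Rat cerebellar membranes (10 μg) incubated 1 h at 30 °C with 0.2 nM [35S]GTPγS, 50 μM GDP, and compound at 1 μM or 300 nM, alone or with 1 μM WIN 55,212-2, in Tris/MgCl2/EGTA/NaCl pH 7.4. Filter-bound radioactivity counted; percent stimulation calculated against basal specific binding (nonspecific defined by 10 μM GTPγS).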
On the technique in general: Binding of GTPγS marks nucleotide exchange on a G protein.

Series [5] relates to voluntary ethanol intake. The note with it: mice; cited from earlier work.
The test system of series [6] is voluntary ethanol intake. The note with it: rats; cited from earlier work.
The target of series [7] is T2, CB1. Kind of series: Rat CB1 receptor binding using brain membrane, [3H]SR141716A displacement (Protocol I). Also on record: CB1 receptor present in a rat brain membrane preparation; from tissue; host or cells: rat brain membrane; inhibition: dose or concentration left out as unconfirmed. The note with it: 1 h, read-out: % Displacement Protocol I, rat brain membrane, [3H]SR141716A displacement.

The test system of series [8] is neuropathic hyperalgesia. Kind of series: Neuropathic hyperalgesia model, partial sciatic nerve ligation (Seltzer's model, Protocol V). The format is in vivo. The note with it: rat, 1 mg/kg I.P., paw pressure, 0.5 and 1 hour postdose. The method, then: V. Neuropathic Hyperalgesia Model—Partial Sciatic Nerve Ligation (Seltzer's Model)
This protocol was performed with the compound of Example 294 at 0.01, 0.1, 0.3, and 1 mg/kg (I.P.), and gabapentin at 100 mg/kg (I.P.) to evaluate the ability of the compound of Example 294 in reducing neuropathic hyperalgesia. The Seltzer method is also generally described in Seltzer et al., Pain 1990, 43:205-18. • 1. Rats were anesthetised using ketamine/xylazine (40/5 mg/kg/ml, i.p.). After induction of anaesthesia, the left thigh was shaved and cleaned. • 2. The left sciatic nerve was exposed at mid thigh level through a small incision. • 3. The nerve was cleared from adhering muscle tissue. • 4. One half of the nerve thickness was tightly ligated just after the bifurcation of common sciatic nerve using 7.0 silk sutures. • 5. The wound was closed with muscle and skin sutures and povidone was applied. • 6. […] Paw withdrawal thresholds were recorded for both the ipsilateral and the contralateral hind paws before (predose) and 0.5 and 1 hour after drug or vehicle administration (postdose). • 9. […]
The threshold withdrawal latency (naïve, predose & postdose) values are represented as mean±SEM. […] The percent reversal of neuropathic mechanical hyperalgesia was calculated from withdrawal threshold latency values according to the following formula: […]

Like-named read-outs stand apart in the source and are kept apart here.

T2 sequence (P20272 whole entry): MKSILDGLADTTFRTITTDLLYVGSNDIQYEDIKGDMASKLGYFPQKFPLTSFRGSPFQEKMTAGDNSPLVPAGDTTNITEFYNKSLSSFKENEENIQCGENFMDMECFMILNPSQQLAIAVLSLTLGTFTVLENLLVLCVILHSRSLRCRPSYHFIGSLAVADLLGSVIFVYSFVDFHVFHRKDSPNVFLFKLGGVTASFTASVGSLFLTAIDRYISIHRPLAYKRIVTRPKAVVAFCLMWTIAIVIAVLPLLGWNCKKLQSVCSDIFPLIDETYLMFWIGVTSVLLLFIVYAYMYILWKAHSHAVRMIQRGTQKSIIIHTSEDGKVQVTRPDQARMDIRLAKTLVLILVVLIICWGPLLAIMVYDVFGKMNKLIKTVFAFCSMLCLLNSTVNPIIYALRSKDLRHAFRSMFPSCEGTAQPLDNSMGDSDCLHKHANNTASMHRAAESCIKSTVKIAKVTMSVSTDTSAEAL

Molecule `CC(C)(NC(=O)c1nn(-c2ccc(Cl)cc2)c2c1C1CC3CC(C1)CC2C3)c1ccccc1` [Example 119] registered a melting point of 181 °C. Also, the IC50 in series [1] was determined as 38.3 nM. In addition, the “% Displacement Protocol III” value in series [2] is on record as 85.2%. Further, in series [3], the inhibition at 10 µM stood at 18.4%. Further, in [4], the activation at 0.3 µM is 46% and the inhibition at 0.3 µM came out at 38.9%.
As to `Cc1c(C(=O)NN2CCCCC2)nn(-c2ccc(Cl)cc2Cl)c1-c1ccc(Cl)cc1` [SR-141716A, 5-(4-chlorophenyl)-1-(2,4-dichlorophenyl)-4-methyl-N-(1-piperidyl)pyrazole-3-carboxamide], the voluntary ethanol intake entry in series [5] and in [6] was “block voluntary ethanol intake” throughout.
Molecule `C[C@H](NC(=O)c1nn(-c2ccc(Cl)cc2)c2c1C1CC3CC(C1)CC2C3)c1ccccc1` [Example 117] gave a melting point of 85 to 86 °C. This molecule also had an IC50 in series [1] of 18.9 nM. In addition, the “% Displacement Protocol III” value in series [2] was 59.8%. In series [4], the activation at 0.3 µM amounted to 4.4% and the inhibition at 0.3 µM is 55.7%.
Molecule `CC(C)(NC(=O)c1nn(-c2ccc(F)cc2F)c2c1C1CCC2C1)c1ccccc1` (stereo not drawn) [Example 294, N(3)-(1-Methyl-1-phenylethyl)-1-(2,4-difluorophenyl)-4,5,6,7-tetrahydro-1H-4,7-methano-indazole-3-carboxamide] yielded a melting point of 105 °C. Also, in series [7], the inhibition was 111%. In [4], the activation at 0.3 µM was 103% and the inhibition at 0.3 µM was determined as 9.8%. Moreover, the “reversal of neuropathic hyperalgesia” value in [8] was “significantly reversed neuropathic hyperalgesia”.
